The values that follow come from paper PMC5470052, “Brain Activation by H1 Antihistamines Challenges Conventional View of Their Mechanism of Action in Motion Sickness: A Behavioral, c-Fos and Physiological Study in Suncus murinus (House Musk Shrew)” (Frontiers in Physiology, 2017).

The assay has as its system T1, histamine H1 receptor.
T1 construct: gene HRH1; native receptor in isolated ileal segments
As to the kind of experiment: organ bath, antagonism of histamine-induced contraction of isolated ileum; double reciprocal analysis. On the set-up: species or system Suncus murinus.

With `O=C(O)COCCN1CCN(C(c2ccccc2)c2ccc(Cl)cc2)CC1` (stereo not shown) [cetirizine], the Kb amounted to 8.4 pKb.
